From patent publication US4371535A, “Method of and composition for delivering 5-fluorouracil to tumors” (priority 1976, dated 1983)
Read-outs that look alike come from different tables or passages of the source.

Experiments:
in vivo = type: in vivo; settings: mouse, in vivo, oral, mice
Procedure: (§1) Mice (ddy strain, male, 5 weeks old) are reared for one week, then fasted for 15 hours and thereafter orally given the compound forcibly. After the administration, the mice are placed into plastic cages, with free access to a solid diet and water, and checked for mortality 3 days, one week, 2 weeks and 3 weeks later. LD50 is calculated according to the method of Litchfield and Wilcoxon.

Mice (ddy strain) = assay: in vivo; type: in vivo; settings: for LD50: oral, mice
Procedure: as §1

Ehrlich carcinoma = assay: Anti-tumor activity on Ehrlich carcinoma, subcutaneous transplant; type: in vivo; settings: mice, oral once daily 7 days; for Inhibition percentage: 121.5 mg/kg (bis) or 90 mg/kg (mono), tumor weight on 10th day; for Weight of tumor: 121.5 mg/kg (bis) or 90 mg/kg (mono, equimolar), 10th day, control 0.61 ± 0.08 g
Procedure: (§2) As transplantable tumors, Ehrlich carcinoma and sarcoma 180 are used for mice and Yoshida sarcoma and AH 130 for rats. […] The effect of the compound is determined in terms of the weight of tumor on the 10th day from the transplantation.

sarcoma 180 = assay: Anti-tumor activity on sarcoma 180, subcutaneous transplant; type: in vivo; settings: mice, oral once daily 7 days, 121.5 mg/kg (bis) or 90 mg/kg (mono); for Weight of tumor: 10th day, control 1.00 ± 0.09 g; for Inhibition percentage: tumor weight on 10th day
Procedure: as §2

Yoshida sarcoma = assay: Anti-tumor activity on Yoshida sarcoma, subcutaneous transplant; type: in vivo; settings: rats, oral once daily 7 days, 121.5 mg/kg (bis) or 90 mg/kg (mono); for Weight of tumor: 10th day, control 4.48 ± 0.60 g; for Inhibition percentage: tumor weight on 10th day
Procedure: as §2

AH-130 = assay: Anti-tumor activity on AH-130, subcutaneous transplant; type: in vivo; settings: rats, oral once daily 7 days, 121.5 mg/kg (bis) or 90 mg/kg (mono); for Weight of tumor: 10th day, control 2.10 ± 0.50 g; for Inhibition percentage: tumor weight on 10th day
Procedure: as §2

Solubility = type: physicochemical
tumor = assay: Anti-tumor activity, overall comparison with 1-(2-tetrahydrofuryl)-5-fluorouracil; type: in vivo; settings: versus 1-(2-tetrahydrofuryl)-5-fluorouracil
Procedure: as §2

[1] = Conversion in the body into 5-fluorouracil; settings: in vivo
Procedure: (§3) Cells of the tumor, AH-130, 5×10^6 in number, are subcutaneously transplanted in the armpit region of test animals (3 in each group). […] The concentration of 5-fluorouracil in the blood and in the cancer cellular tissue of the animals are measured 1, 2, 4, 8 and 12 hours after the administration.

cellular immunity = settings: mouse, in vivo
Procedure: A predetermined amount of 7 wt. % ethanol solution of picryl chloride is given to the shaved abdomens of mice for sensitization. […] On the seventh day after the sensitization, a 1 wt. % olive oil solution of picryl chloride is applied to the inside of both ears of each animal to give rise to a delayed cutireaction. The thickness of the ear resulting from the reaction in 24 hours is measured to calculate the percentage of inhibition on immunity.

[2] = rat, in vivo; for Concentration of 5-fluorouracil in blood: po
Procedure: as §3

[3] = rat, in vivo; for Concentration of 5-fluorouracil in cancer cellular tissue: po
Procedure: as §3

[4] = Toxicity and side effects, overall statement; settings: versus 1-(2-tetrahydrofuryl)-5-fluorouracil
immunity = settings: versus 5-fluorouracil; Giller et al., British Pat. No. 1,168,391; cited from earlier work
[5] = cited from earlier work
transplanted tumors = settings: Heidelberger et al.; cited from earlier work

SMILES	Inhibition percentage (Ehrlich carcinoma) [%]	Weight of tumor (Ehrlich carcinoma) [g]	Weight of tumor (sarcoma 180) [g]	Inhibition percentage (sarcoma 180) [%]	Weight of tumor (Yoshida sarcoma) [g]	Inhibition percentage (Yoshida sarcoma) [%]	Weight of tumor (AH-130) [g]	Inhibition percentage (AH-130) [%]	Concentration of 5-fluorouracil in blood ([2]; 60 min) [ng/mL]	Concentration of 5-fluorouracil in blood ([2]; 120 min) [ng/mL]	Concentration of 5-fluorouracil in blood ([2]; 240 min) [ng/mL]	Concentration of 5-fluorouracil in blood ([2]; 480 min) [ng/mL]	Concentration of 5-fluorouracil in blood ([2]; 720 min) [ng/mL]	Concentration of 5-fluorouracil in cancer cellular tissue ([3]; 60 min) [ng/mL]	Concentration of 5-fluorouracil in cancer cellular tissue ([3]; 120 min) [ng/mL]	Concentration of 5-fluorouracil in cancer cellular tissue ([3]; 240 min) [ng/mL]	Concentration of 5-fluorouracil in cancer cellular tissue ([3]; 480 min) [ng/mL]	Concentration of 5-fluorouracil in cancer cellular tissue ([3]; 720 min) [ng/mL]	further results
O=c1c(F)cn(C2CCCO2)c(=O)n1C1CCCO1 (centres unmarked) [1,3-bis(2-tetrahydrofuryl)-5-fluorouracil]	57	0.26 ± 0.06	0.31 ± 0.10	69	2.59 ± 0.33	42	0.92 ± 0.35	56	5880	5080	2650	570	200	8930	7530	7530	5400	2130	LD50 at 504 h (in vivo; 3 weeks): 2560 mg/kg; LD50 at 72 h (in vivo; 3 days): 2980 mg/kg; LD50 (Mice (ddy strain); 1 week, 10080 min): 2,780 mg/kg; LD50 (Mice (ddy strain); 2 weeks, 20160 min): 2,664 mg/kg; Acute toxicity relative to the conventional composition (Mice (ddy strain); versus composition containing 1-(2-tetrahydrofuryl)-5-fluorouracil): about one-third; Solubility (Solubility; methanol, ethanol, acetone, ether, chloroform, glacial acetic acid, dimethyl sulfoxide): soluble; Solubility (Solubility; water, aqueous caustic soda solution, ethyl acetate, hydrochloric acid): sparingly soluble; Anti-tumor activity, in words (tumor): more excellent anti-tumor activity; Conversion in the body (prodrug) [1]: converted in the body into 5-fluorouracil; Inhibitory effect on the cellular immunity relative to the conventional composition (cellular immunity): lower inhibitory effect on the cellular immunity; Concentration of 5-fluorouracil in the blood relative to the conventional composition [2]: 10-20 times; Concentration of 5-fluorouracil in cancer cellular tissue relative to the conventional composition [3]: 10-20 times; Concentration of 5-fluorouracil maintained in cancer cellular tissue, in words [3]: much higher; Side effects, in words [4]: less side effects; Toxicity, in words [4]: lower toxicity
O=c1[nH]c(=O)n(C2CCCO2)cc1F (centres unmarked) [1-(2-tetrahydrofuryl)-5-fluorouracil, reference compound]	39	0.37 ± 0.14	0.36 ± 0.11	64	3.48 ± 0.68	22	1.11 ± 0.17	47	200	300	200	80	≤ 40	≤ 200	350	350	340	≤ 200	Inhibition on immunity, in words (immunity): less inhibitory on immunity than 5-fluorouracil; Toxicity, in words ([5]; versus 5-fluorouracil, Giller et al., British Pat. No. 1,168,391): lower in toxicity
O=c1[nH]cc(F)c(=O)[nH]1 [5-fluorouracil]	–	–	–	–	–	–	–	–	–	–	–	–	–	–	–	–	–	–	Anti-tumor activity, in words (transplanted tumors): inhibit transplanted tumors; Toxicity, in words ([5]; background statement): highly toxic; Side effects, in words ([5]; in vivo): reduced immunity, gastro-intestinal ulceration, leucopenia and various other side effects
